Assay results published in patent publication US11192877B2, “3-(5-hydroxy-1-oxoisoindolin-2-yl)piperidine-2,6-dione derivatives and uses thereof” (Novartis AG, priority 2018, dated 2021).

These compounds were tested against IKZF2 (Helios) (Homo sapiens, UniProt Q96SW2+Q9UKS7) (assay: Prolabel quantification of IKZF2 protein levels in 293GT cells). Conditions: 24 h, Pro-label assay, 293GT cells, 10 μM, read-out: IKZF2 % protein reduction at 10 μM, 24 h.
Sequence of IKZF2 (Helios) (Q9UKS7 whole entry): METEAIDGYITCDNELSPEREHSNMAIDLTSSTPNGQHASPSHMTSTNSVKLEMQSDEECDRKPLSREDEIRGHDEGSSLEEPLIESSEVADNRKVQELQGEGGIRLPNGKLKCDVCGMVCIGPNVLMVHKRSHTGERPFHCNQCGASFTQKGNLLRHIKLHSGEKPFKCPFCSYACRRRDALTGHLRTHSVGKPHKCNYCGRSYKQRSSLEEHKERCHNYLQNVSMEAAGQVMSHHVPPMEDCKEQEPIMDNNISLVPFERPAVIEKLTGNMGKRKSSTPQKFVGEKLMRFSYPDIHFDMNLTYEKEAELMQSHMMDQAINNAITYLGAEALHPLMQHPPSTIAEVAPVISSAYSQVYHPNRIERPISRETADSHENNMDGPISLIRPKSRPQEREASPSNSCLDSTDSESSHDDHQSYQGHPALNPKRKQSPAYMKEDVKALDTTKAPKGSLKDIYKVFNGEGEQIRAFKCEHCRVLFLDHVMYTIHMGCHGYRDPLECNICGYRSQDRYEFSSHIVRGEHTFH
Sequence of IKZF2 (Helios) (Q96SW2 whole entry): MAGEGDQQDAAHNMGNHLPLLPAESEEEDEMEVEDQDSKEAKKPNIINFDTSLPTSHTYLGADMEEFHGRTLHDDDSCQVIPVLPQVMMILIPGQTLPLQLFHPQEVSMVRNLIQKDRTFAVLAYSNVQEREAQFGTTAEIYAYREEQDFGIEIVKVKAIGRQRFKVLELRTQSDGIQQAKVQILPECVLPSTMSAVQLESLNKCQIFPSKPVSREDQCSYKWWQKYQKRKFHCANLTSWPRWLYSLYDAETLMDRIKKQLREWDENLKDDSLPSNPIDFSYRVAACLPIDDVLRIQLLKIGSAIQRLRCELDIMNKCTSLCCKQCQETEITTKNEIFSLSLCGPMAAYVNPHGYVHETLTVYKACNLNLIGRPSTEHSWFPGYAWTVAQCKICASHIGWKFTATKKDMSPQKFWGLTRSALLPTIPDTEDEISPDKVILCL
Sequence of IKZF2 (Helios) (Q16531 whole entry partner): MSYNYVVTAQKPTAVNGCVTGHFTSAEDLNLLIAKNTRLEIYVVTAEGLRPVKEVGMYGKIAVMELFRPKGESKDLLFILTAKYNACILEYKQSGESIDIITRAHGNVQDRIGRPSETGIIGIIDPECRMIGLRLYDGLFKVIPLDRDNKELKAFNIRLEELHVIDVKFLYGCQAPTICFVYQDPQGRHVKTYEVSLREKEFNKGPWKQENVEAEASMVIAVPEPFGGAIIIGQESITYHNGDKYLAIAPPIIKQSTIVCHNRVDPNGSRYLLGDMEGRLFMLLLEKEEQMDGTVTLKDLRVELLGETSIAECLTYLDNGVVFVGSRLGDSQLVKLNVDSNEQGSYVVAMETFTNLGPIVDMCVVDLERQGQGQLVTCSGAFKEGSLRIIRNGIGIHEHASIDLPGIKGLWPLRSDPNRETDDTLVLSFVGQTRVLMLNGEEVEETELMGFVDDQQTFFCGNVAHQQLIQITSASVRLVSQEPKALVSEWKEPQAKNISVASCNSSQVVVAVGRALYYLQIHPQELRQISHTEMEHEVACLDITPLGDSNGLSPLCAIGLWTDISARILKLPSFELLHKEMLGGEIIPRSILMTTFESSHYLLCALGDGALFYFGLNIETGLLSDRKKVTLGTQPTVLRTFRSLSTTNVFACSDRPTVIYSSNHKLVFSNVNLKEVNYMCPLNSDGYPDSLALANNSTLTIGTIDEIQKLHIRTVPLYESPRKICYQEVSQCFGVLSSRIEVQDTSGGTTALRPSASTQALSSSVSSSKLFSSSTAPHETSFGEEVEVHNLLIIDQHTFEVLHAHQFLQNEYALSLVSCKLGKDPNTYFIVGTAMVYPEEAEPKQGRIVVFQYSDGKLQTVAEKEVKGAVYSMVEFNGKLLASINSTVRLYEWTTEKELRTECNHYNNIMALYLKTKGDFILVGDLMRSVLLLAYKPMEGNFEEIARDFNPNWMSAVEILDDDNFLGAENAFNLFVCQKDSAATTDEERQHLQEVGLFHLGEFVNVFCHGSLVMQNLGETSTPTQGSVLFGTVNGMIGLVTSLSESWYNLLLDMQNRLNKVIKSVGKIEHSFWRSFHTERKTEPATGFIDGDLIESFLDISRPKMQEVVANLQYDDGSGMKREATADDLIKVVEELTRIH
Assay type: cell-based
With `CO[C@@H]1CCN(C2CCCC2Oc2ccc3c(c2)CN(C2CCC(=O)NC2=O)C3=O)C1` (single isomer, unassigned) [I-192] the IKZF2 % protein reduction at 10 µM was 77%.
With `O=C1CCC(N2Cc3cc(O[C@H]4CCCCC[C@@H]4N4CC5(COC5)C4)ccc3C2=O)C(=O)N1` (stereo partly drawn) [I-63, 3-(5-(((1S,2S)-2-(2-oxa-6-azaspiro[3.3]heptan-6-yl)cycloheptyl)oxy)-1-oxoisoindolin-2-yl)piperidine-2,6-dione] the IKZF2 % protein reduction at 10 µM was 85%.
In the case of `O=C1CCC(N2Cc3cc(O[C@H]4CCC[C@@H]4N4CC5CCC(C4)O5)ccc3C2=O)C(=O)N1` (stereo partly drawn) [I-18, 3-(5-(((1S,2S)-2-(8-oxa-3-azabicyclo[3.2.1]octan-3-yl)cyclopentyl)oxy)-1-oxoisoindolin-2-yl)piperidine-2,6-dione], the IKZF2 % protein reduction at 10 µM is reported as 50%.
`O=C1CCC(N2Cc3cc(O[C@H]4CCCC[C@@H]4NCC4(C(F)(F)F)CC4)ccc3C2=O)C(=O)N1` (stereo partly drawn) [I-11, 3-(1-oxo-5-(((1S,2S)-2-(((1-(trifluoromethyl)cyclopropyl)methyl)amino)cyclohexyl)oxy)isoindolin-2-yl)piperidine-2,6-dione] showed an IKZF2 % protein reduction at 10 µM of 75%.
Work on `O=C1CCC(N2Cc3cc(O[C@H]4CCC[C@@H]4N4CCc5ncccc5C4)ccc3C2=O)C(=O)N1` (stereo partly drawn) [I-190, 3-(5-(((1S,2S)-2-(7,8-dihydro-1,6-naphthyridin-6(5H)-yl)cyclopentyl)oxy)-1-oxoisoindolin-2-yl)piperidine-2,6-dione] yielded an IKZF2 % protein reduction at 10 µM of 39%.
In the case of `COc1ccccc1OC1CN([C@H]2CCCC[C@@H]2Oc2ccc3c(c2)CN(C2CCC(=O)NC2=O)C3=O)C1` (stereo partly drawn) [I-113, 3-(5-(((1S,2S)-2-(3-(2-methoxyphenoxy)azetidin-1-yl)cyclohexyl)oxy)-1-oxoisoindolin-2-yl)piperidine-2,6-dione], the IKZF2 % protein reduction at 10 µM is reported as 93%.
With `O=C1CCC(N2Cc3cc(O[C@H]4CCCC[C@@H]4N4CCCCC4)ccc3C2=O)C(=O)N1` (stereo partly drawn) [I-97, 3-(1-oxo-5-(((1S,2S)-2-(piperidin-1-yl)cyclohexyl)oxy)isoindolin-2-yl)piperidine-2,6-dione] the IKZF2 % protein reduction at 10 µM was 36%.
`O=C1CCC(N2Cc3cc(O[C@H]4CCCC[C@@H]4N4CC(OCC(F)(F)F)C4)ccc3C2=O)C(=O)N1` (stereo partly drawn) [I-49, 3-(1-oxo-5-(((1S,2S)-2-(3-(2,2,2-trifluoroethoxy)azetidin-1-yl)cyclohexyl)oxy)isoindolin-2-yl)piperidine-2,6-dione] was tested, and the IKZF2 % protein reduction at 10 µM was 86%.
For `CCN(C(C)C)[C@H]1CCC[C@@H]1Oc1ccc2c(c1)CN(C1CCC(=O)NC1=O)C2=O` (stereo partly drawn) [I-25, 3-(5-(((1S,2S)-2-(ethyl(isopropyl)amino)cyclopentyl)oxy)-1-oxoisoindolin-2-yl)piperidine-2,6-dione], the IKZF2 % protein reduction at 10 µM was 80%.
In the case of `CCN(CC)[C@@H]1CCC[C@H]1Oc1ccc2c(c1)CN(C1CCC(=O)NC1=O)C2=O` (stereo partly drawn) [I-43, 3-(5-(((1R,2R)-2-(diethylamino)cyclopentyl)oxy)-1-oxoisoindolin-2-yl)piperidine-2,6-dione], the IKZF2 % protein reduction at 10 µM is reported as 0%.
With `N#Cc1ccc(CN[C@H]2CCCC[C@@H]2Oc2ccc3c(c2)CN(C2CCC(=O)NC2=O)C3=O)cc1` (stereo partly drawn) [I-129, 4-((((1S,2S)-2-((2-(2,6-dioxopiperidin-3-yl)-1-oxoisoindolin-5-yl)oxy)cyclohexyl)amino)methyl)benzonitrile] the IKZF2 % protein reduction at 10 µM was 70%.
`CO[C@H]1CCN(C2CCCC2Oc2ccc3c(c2)CN(C2CCC(=O)NC2=O)C3=O)C1` (single isomer, unassigned) [I-193] was tested, and the IKZF2 % protein reduction at 10 µM was 79%.
`CC1(CN[C@H]2CCCC[C@@H]2Oc2ccc3c(c2)CN(C2CCC(=O)NC2=O)C3=O)CCOCC1` (stereo partly drawn) [I-102, 3-(5-(((1S,2S)-2-(((4-methyltetrahydro-2H-pyran-4-yl)methyl)amino)cyclohexyl)oxy)-1-oxoisoindolin-2-yl)piperidine-2,6-dione] gave an IKZF2 % protein reduction at 10 µM of 73%.
With `O=C1CCC(N2Cc3cc(O[C@H]4CCCC[C@@H]4N4CC(Oc5cccc(F)c5)C4)ccc3C2=O)C(=O)N1` (stereo partly drawn) [I-121, 3-(5-(((1S,2S)-2-(3-(3-fluorophenoxy)azetidin-1-yl)cyclohexyl)oxy)-1-oxoisoindolin-2-yl)piperidine-2,6-dione] the IKZF2 % protein reduction at 10 µM was 94%.
With `CC(C)CN[C@H]1CCCC[C@@H]1Oc1ccc2c(c1)CN(C1CCC(=O)NC1=O)C2=O` (stereo partly drawn) [I-7, 3-(5-(((1S,2S)-2-(isobutylamino)cyclohexyl)oxy)-1-oxoisoindolin-2-yl)piperidine-2,6-dione] the IKZF2 % protein reduction at 10 µM was 85%.
Compound `CN(Cc1ccccc1)[C@H]1CCCC[C@@H]1Oc1ccc2c(c1)CN(C1CCC(=O)NC1=O)C2=O` (stereo partly drawn) [I-39, 3-(5-(((1S,2S)-2-(benzyl(methyl)amino)cyclohexyl)oxy)-1-oxoisoindolin-2-yl)piperidine-2,6-dione] has an IKZF2 % protein reduction at 10 µM of 57%.
Compound `CCN(CC)[C@H]1COC[C@@H]1Oc1ccc2c(c1)CN(C1CCC(=O)NC1=O)C2=O` (stereo partly drawn) [I-47, 3-(5-(((3R,4S)-4-(diethylamino)tetrahydrofuran-3-yl)oxy)-1-oxoisoindolin-2-yl)piperidine-2,6-dione] has an IKZF2 % protein reduction at 10 µM of 11%.
`O=C1CCC(N2Cc3cc(O[C@H]4CCCC[C@@H]4O)ccc3C2=O)C(=O)N1` (stereo partly drawn) [I-27, 3-(5-(((1S,2S)-2-hydroxycyclohexyl)oxy)-1-oxoisoindolin-2-yl)piperidine-2,6-dione] was tested, and the IKZF2 % protein reduction at 10 µM was 50%.
With `O=C1CCC(N2Cc3cc(O[C@H]4CCCC[C@@H]4N4CCC5(CC4)COC5)ccc3C2=O)C(=O)N1` (stereo partly drawn) [I-105, 3-(5-(((1S,2S)-2-(2-oxa-7-azaspiro[3.5]nonan-7-yl)cyclohexyl)oxy)-1-oxoisoindolin-2-yl)piperidine-2,6-dione] the IKZF2 % protein reduction at 10 µM was 52%.
`COC1(C)CCN([C@H]2CCCC[C@@H]2Oc2ccc3c(c2)CN(C2CCC(=O)NC2=O)C3=O)CC1` (stereo partly drawn) [I-88, 3-(5-(((1S,2S)-2-(4-methoxy-4-methylpiperidin-1-yl)cyclohexyl)oxy)-1-oxoisoindolin-2-yl)piperidine-2,6-dione] gave an IKZF2 % protein reduction at 10 µM of 57%.
Compound `O=C1CCC(N2Cc3cc(O[C@H]4CCCC[C@@H]4NC4CCC(F)(F)CC4)ccc3C2=O)C(=O)N1` (stereo partly drawn) [I-115, 3-(5-(((1S,2S)-2-((4,4-difluorocyclohexyl)amino)cyclohexyl)oxy)-1-oxoisoindolin-2-yl)piperidine-2,6-dione] has an IKZF2 % protein reduction at 10 µM of 90%.
`CO[C@H]1CCCC[C@@H]1Oc1ccc2c(c1)CN(C1CCC(=O)NC1=O)C2=O` (stereo partly drawn) [I-4, 3-(5-(((1S,2S)-2-methoxycyclohexyl)oxy)-1-oxoisoindolin-2-yl)piperidine-2,6-dione] was tested, and the IKZF2 % protein reduction at 10 µM was 25%.
For `CCOC1(C)CCN([C@H]2CCC[C@@H]2Oc2ccc3c(c2)CN(C2CCC(=O)NC2=O)C3=O)CC1` (stereo partly drawn) [I-158, 3-(5-(((1S,2S)-2-(4-ethoxy-4-methylpiperidin-1-yl)cyclopentyl)oxy)-1-oxoisoindolin-2-yl)piperidine-2,6-dione], the IKZF2 % protein reduction at 10 µM was 82%.
Compound `O=C1CCC(N2Cc3cc(O[C@H]4CCC[C@@H]4N4CCC(F)(F)CC4)ccc3C2=O)C(=O)N1` (stereo partly drawn) [I-8, 3-(5-(((1S,2S)-2-(4,4-difluoropiperidin-1-yl)cyclopentyl)oxy)-1-oxoisoindolin-2-yl)piperidine-2,6-dione] has an IKZF2 % protein reduction at 10 µM of 50%.
With `O=C1CCC(N2Cc3cc(O[C@H]4CCCCC[C@@H]4NCC4CC(F)(F)C4)ccc3C2=O)C(=O)N1` (stereo partly drawn) [I-69, 3-(5-(((1S,2S)-2-(((3,3-difluorocyclobutyl)methyl)amino)cycloheptyl)oxy)-1-oxoisoindolin-2-yl)piperidine-2,6-dione] the IKZF2 % protein reduction at 10 µM was 84%.
In the case of `O=C1CCC(N2Cc3cc(O[C@H]4CCCC[C@@H]4NCc4ccccc4)ccc3C2=O)C(=O)N1` (stereo partly drawn) [I-22, 3-(5-(((1S,2S)-2-(benzylamino)cyclohexyl)oxy)-1-oxoisoindolin-2-yl)piperidine-2,6-dione], the IKZF2 % protein reduction at 10 µM is reported as 80%.
Work on `COC1CN([C@H]2CCC[C@@H]2Oc2ccc3c(c2)CN(C2CCC(=O)NC2=O)C3=O)C1` (stereo partly drawn) [I-157, 3-(5-(((1S,2S)-2-(3-methoxyazetidin-1-yl)cyclopentyl)oxy)-1-oxoisoindolin-2-yl)piperidine-2,6-dione] yielded an IKZF2 % protein reduction at 10 µM of 61%.
For `CCCN[C@H]1CCCC[C@@H]1Oc1ccc2c(c1)CN(C1CCC(=O)NC1=O)C2=O` (stereo partly drawn) [I-71, 3-(1-oxo-5-(((1S,2S)-2-(propylamino)cyclohexyl)oxy)isoindolin-2-yl)piperidine-2,6-dione], the IKZF2 % protein reduction at 10 µM was 88%.
`CCCN[C@H]1CCCCC[C@@H]1Oc1ccc2c(c1)CN(C1CCC(=O)NC1=O)C2=O` (stereo partly drawn) [I-62, 3-(1-oxo-5-(((1S,2S)-2-(propylamino)cycloheptyl)oxy)isoindolin-2-yl)piperidine-2,6-dione] was tested, and the IKZF2 % protein reduction at 10 µM was 88%.
With `COC1CN([C@H]2CCCC[C@@H]2Oc2ccc3c(c2)CN(C2CCC(=O)NC2=O)C3=O)C1` (stereo partly drawn) [I-89, 3-(5-(((1S,2S)-2-(3-methoxyazetidin-1-yl)cyclohexyl)oxy)-1-oxoisoindolin-2-yl)piperidine-2,6-dione] the IKZF2 % protein reduction at 10 µM was 82%.
In the case of `O=C1CCC(N2Cc3cc(O[C@H]4CCCC[C@@H]4N4CC(OC5CC(F)(F)C5)C4)ccc3C2=O)C(=O)N1` (stereo partly drawn) [I-56, 3-(5-(((1S,2S)-2-(3-(3,3-difluorocyclobutoxy)azetidin-1-yl)cyclohexyl)oxy)-1-oxoisoindolin-2-yl)piperidine-2,6-dione], the IKZF2 % protein reduction at 10 µM is reported as 91%.
`CCCN(CCC)[C@H]1CCCC[C@@H]1Oc1ccc2c(c1)CN(C1CCC(=O)NC1=O)C2=O` (stereo partly drawn) [I-72, 3-(5-(((1S,2S)-2-(dipropylamino)cyclohexyl)oxy)-1-oxoisoindolin-2-yl)piperidine-2,6-dione] showed an IKZF2 % protein reduction at 10 µM of 57%.

Same assay, conditions: 24 h, read-out: IKZF2 % protein reduction at 10 μM, 24 h
For `O=C1CCC(N2Cc3cc(O[C@H]4CCC[C@@H]4NCc4cccnc4)ccc3C2=O)C(=O)N1` (stereo partly drawn) [I-150, 3-(1-oxo-5-(((1S,2S)-2-((pyridin-3-ylmethyl)amino)cyclopentyl)oxy)isoindolin-2-yl)piperidine-2,6-dione], the IKZF2 % protein reduction at 10 µM was 51%.
Work on `Cc1cccc(CN[C@H]2CCCC[C@@H]2Oc2ccc3c(c2)CN(C2CCC(=O)NC2=O)C3=O)n1` (stereo partly drawn) [I-90, 3-(5-(((1S,2S)-2-(((6-methylpyridin-2-yl)methyl)amino)cyclohexyl)oxy)-1-oxoisoindolin-2-yl)piperidine-2,6-dione] yielded an IKZF2 % protein reduction at 10 µM of 57%.

Same assay, conditions: Pro-label assay, 293GT cells, 10 μM
For `COC1CC(CNC2CCCCC2Oc2ccc3c(c2)CN(C2CCC(=O)NC2=O)C3=O)C1` (single isomer, unassigned) [I-100], the “IKZF2 % protein reduction at 10 μM, 24 h” value was 86%.
